Assay results as given in patent publication US8828988B2 (Tetraphase Pharmaceuticals, Inc., priority 2009, dated 2014).
In brackets after ≈: the same amount, converted by molar mass. Read-outs that look alike come from different tables or passages of the source.

Experiments:
[1] = system: Staphylococcus aureus SA158, tetracycline-resistant tet(K); test: MIC assay, SA158; type: cell-based
[2] = system: Acinetobacter baumannii AB110, ATCC 19606; test: MIC assay, AB110; type: cell-based; settings: ATCC19606, Table 9, read-out: MIC A.baum AB110
[3] = system: Streptococcus pneumoniae SP160, tetracycline-resistant, tet(M); test: MIC assay, SP160; type: cell-based
[4] = system: Escherichia coli EC155, tetracycline-resistant, tet(A); test: MIC assay, EC155; type: cell-based
[5] = system: Streptococcus pneumoniae SP106, ATCC 49619; test: MIC assay, SP106; type: cell-based
[6] = system: Enterobacter cloacae EC108, ATCC 13047; test: MIC assay, EC108; type: cell-based; settings: ATCC13047, Table 9, read-out: MIC Enterobacter cloaceae ATCC 13047
[7] = system: Klebsiella pneumoniae KP109, ATCC 13883; test: MIC assay, KP109; type: cell-based; settings: ATCC13883, Table 9, read-out: MIC Klebsiella pneum ATCC 13883
[8] = Pharmacokinetic analysis in Sprague-Dawley rats
[9] = system: E. coli S30 extract system, coupled in vitro transcription/translation, firefly luciferase readout; test: In vitro transcription/translation (TnT) assay; type: biochemical
[10] = system: Klebsiella pneumoniae KP153, tetracycline-resistant, tet(A), MDR, ESBL+; test: MIC assay, KP153; type: cell-based; settings: Table 9, read-out: MIC Klebsiella pneum KP153 (tet)A
in vivo = settings: Sprague-Dawley, rat
[11] = system: Staphylococcus aureus SA100, ATCC 13709, MSSA, Smith strain; test: MIC assay, SA100; type: cell-based
[12] = system: Enterococcus faecalis EF103, ATCC 29212; test: MIC assay, EF103; type: cell-based; settings: for MIC: Enterococcus faecalis, ATCC29212, Table 8, read-out: MIC E. faecalis ATCC 29212; for MIC E. faecalis ATCC 29212: Table 9
[13] = system: S. aureus ATCC 13709 (Smith); test: Mouse systemic infection model, S. aureus septicemia; settings: survival after 48 hours
E. coli ATCC 25922 = test: Mouse systemic infection model, E. coli septicemia; settings: survival after 48 hours
[14] = system: Enterococcus faecalis EF159, tetracycline-resistant, tet(M); test: MIC assay, EF159; type: cell-based
[15] = system: Staphylococcus aureus SA161, HA-MRSA, tetracycline-resistant, tet(M); test: MIC assay, SA161; type: cell-based
[16] = system: Pseudomonas aeruginosa PA111, ATCC 27853; test: MIC assay, PA111; type: cell-based; settings: ATCC27853, Table 9, read-out: MIC P. aeruginosa ATCC 27853
[17] = system: Escherichia coli EC107, ATCC 25922; test: MIC assay, EC107; type: cell-based
[18] = system: H. influenzae isolates (Eurofins-Medinet, recent clinical isolates); test: MIC50 and MIC90 analysis (Example 22); settings: for MIC Range: H. influenzae (n = 12); for MIC50 / MIC90: Haemophilus influenzae
Procedure: (§4) Frozen bacterial strains were thawed and subcultured onto Mueller Hinton Broth (MHB) or other appropriate media (Streptococcus requires blood and Haemophilus requires hemin and NAD). Following incubation overnight, the strains were subcultured onto Mueller Hinton Agar and again incubated overnight. […] Isolated colonies were selected to prepare a starting inoculum equivalent to a 0.5 McFarland standard. […] Antibiotics (stored frozen, thawed and used within 3 hours of thawing) and compounds were further diluted to the desired working concentrations.
(§5) The assays were run as follows. Fifty μL of MHB was added to wells 2-12 of a 96-well plate. One hundred μL of appropriately diluted antibiotic or compound was added to well 1. Fifty μL of antibiotics or compound was removed from well 1 and added to well 2 and the contents of well 2 mixed by pipetting up and down five times. Fifty μL of the mixture in well 2 was removed and added to well 3 and mixed as above. Serial dilutions were continued in the same manner through well 12. Fifty μL was removed from well 12 so that all contained 50 μL. Fifty μL of the working inoculum was then added to all test wells. A growth control well was prepared by adding 50 μL of working inoculum and 50 μL of MHB to an empty well. The plates were then incubated at 37° C. overnight, removed from the incubator and each well was read on a plate reading mirror. The lowest concentration (MIC) of test compound that inhibited the growth of the bacteria was recorded.
(§6) MIC, MIC50 and MIC90 values were determined according to CLSI methodology. S. pneumoniae and H. influenzae isolates were obtained from Eurofins-Medinet and are recent clinical isolates. S. aureus strains were collected from various geographical sources.

[19] = system: S. aureus strains collected from various geographical sources; test: MIC50 and MIC90 analysis (Example 22)
Procedure: as §4, §5, §6

[20] = system: S. pneumoniae isolates (Eurofins-Medinet, recent clinical isolates); test: MIC50 and MIC90 analysis (Example 22); settings: for MIC Range: S. pneumoniae (n = 20); for MIC50 / MIC90: Streptococcus pneumoniae
Procedure: as §4, §5, §6

[21] = system: Staphylococcus aureus SA101, ATCC 29213, MSSA; test: MIC assay, SA101; type: cell-based
[22] = system: S. pneumoniae clinical isolates; test: MIC50, MIC90 and MIC range, panel of clinical isolates (Example 20); type: cell-based; settings: 19 isolates, in µg/mL
Procedure: (§1) The assays were run as follows.
(§2) Both values, as well as the MIC range (the lowest and highest MIC value observed for a collection of organisms), were determined for the isolates listed in Table 3.

[23] = system: S. aureus clinical isolates; test: as above; type: cell-based; settings: MRSA, 30 isolates; in µg/mL
Procedure: as §1, §2

[24] = system: E. faecalis clinical isolates; test: as above; type: cell-based; settings: 24 isolates, in µg/mL
Procedure: as §1, §2

[25] = system: E. coli DH10B(pBAD-tetK), expressing tet(K); test: MIC against recombinant E. coli expressing tet(K); type: cell-based; settings: for MIC: Escherichia coli
Text: (§3) Constructs were transformed into E. coli DH10B for expression. Recombinant strains were pre-induced under optimized conditions with L-arabinose prior to use as inocula in CLSI standardized MIC assays.

[26] = system: E. coli DH10B(pBAD-tetM), expressing tet(M); test: MIC against recombinant E. coli expressing tet(M); type: cell-based
Text: as §3

[27] = Table 8, read-out: MIC S. aureus tetK
[28] = Table 9, read-out: MIC S. aureus SA158 (tet)K
[29] = Table 8, read-out: MIC S. pneumoniae tetM
[30] = Table 9, read-out: MIC S. pneum SP160 (tet)M
[31] = Table 8, read-out: MIC E. coli tetA
[32] = Table 9, read-out: MIC E. coli EC155 (tet)A
[33] = ATCC49619, Table 8, read-out: MIC S. pneumoniae ATCC 49619
[34] = ATCC49619, Table 9, read-out: MIC S. pneum ATCC 49619
[35] = after IV dosing, single dose 1 mg/kg
[36] = Table 9, read-out: MIC S. aureus ATCC 13709
[37] = Table 8, read-out: MIC E. faecalis tetM
[38] = Table 9, read-out: MIC E. faecalis EF159 (tet)M
[39] = Table 8, read-out: MIC S. aureus MRSA, tetM
[40] = Table 9, read-out: MIC MRSA (tet)M SA161
[41] = ATCC25922, Table 8, read-out: MIC E. coli ATCC 25922
[42] = ATCC25922, Table 9, read-out: MIC E. coli ATCC 25922
[43] = Table 8, read-out: MIC S. aureus ATCC 29213
[44] = Table 9, read-out: MIC S. aureus ATCC 29213

Compound CN(C)c1ncc(O)c2c1C[C@H]1C[C@H]3[C@H](N(C)C)C(O)=C(C(N)=O)C(=O)[C@@]3(O)C(O)=C1C2=O [Compound 109] has an MIC [1, 27] of 2 µg/mL (≈ 4.36 µM), an MIC [1, 28] of 1 µg/mL (≈ 2.18 µM) and an MIC [2] of 0.5 µg/mL (≈ 1.09 µM). The MIC [3, 29] was 8 µg/mL (≈ 17.4 µM), the MIC [3, 30] was 8 µg/mL (≈ 17.4 µM) and the MIC [4, 31] was > 32 µg/mL. For the same compound, the MIC [4, 32] was > 32 µg/mL, the MIC [5, 33] was 0.031 µg/mL (≈ 0.0676 µM) and the MIC [5, 34] was 0.03 µg/mL (≈ 0.0654 µM). For the same compound, the MIC [6] was 1 µg/mL (≈ 2.18 µM), the MIC [7] was 0.5 µg/mL (≈ 1.09 µM) and the Clobs ([8]; IV, single dose 1 mg/kg, mean) was 15.311 mL/min/kg. It also gave a Vzobs ([8]; IV, single dose 1 mg/kg, mean) of 4.17697 L/kg, a half-life ([8]; IV, single dose 1 mg/kg, mean) of 3.14 h and an AUC [8, 35] of 1087 ng·h/mL. For the same compound, the Cl [8, 35] was 15.3 mL/min/kg, the Vz [8, 35] was 4.177 L/kg and the “% F.” value ([8]; oral bioavailability, PO 10 mg/kg vs IV 1 mg/kg) was 12.74%. For the same compound, the “TnT IC50” value [9] was 0.76 µg/mL, the “IC50, in vitro transcription/translation system” value ([9]; E. coli S30 extract, luciferase readout) was “sub-μg/ml” and the “E. coli TnT” value ([9]; Table 8) was 0.9 µg/mL. The MIC [10] was > 32 µg/mL, the AUC(0-t) (in vivo; iv, 1 mg/kg) was 1090 ng·h/mL and the Cmax (in vivo; iv, 1 mg/kg) was 603 ng/mL. It also gave a Tmax (in vivo; iv, 1 mg/kg) of 0.08 h, a half-life (in vivo; iv, 1 mg/kg) of 3 h and a bioavailability (in vivo; oral, 10 mg/kg) of 13%. For the same compound, the AUC(0-t) (in vivo; po, 10 mg/kg) was 1250 ng·h/mL, the Cmax (in vivo; po, 10 mg/kg) was 192 ng/mL and the Tmax (in vivo; po, 10 mg/kg) was 1.4 h. It also gave a half-life (in vivo; po, 10 mg/kg) of 4.51 h, an MIC [11, 36] of 0.13 µg/mL (≈ 0.284 µM) and an MIC ([11]; Table 12, read-out: MIC S. aureus ATCC 13709) of 0.25 µg/mL (≈ 0.545 µM). For the same compound, the MIC [12] was 1 µg/mL (≈ 2.18 µM), the “MIC E. faecalis ATCC 29212” value [12] was 1 µg/mL (≈ 2.18 µM) and the “PD50 in the mouse septicemia model against S. aureus” value ([13]; CD-1 mice, IP infection, intravenous treatment one hour post-challenge) was < 0.3 mg/kg. The PD50 ([13]; mouse septicemia, S. aureus ATCC 13709, intravenous treatment one hour post-challenge) was <0.30 mg/kg, the “PD50 in the mouse septicemia model against E. coli” value (E. coli ATCC 25922; CD-1 mice, IP infection, treatment one hour post-challenge) was 4.3 mg/kg and the PD50 (E. coli ATCC 25922; mouse septicemia, E. coli ATCC 25922, treatment one hour post-challenge) was 4.3 mg/kg. The MIC [14, 37] was 32 µg/mL (≈ 69.8 µM), the MIC [14, 38] was 32 µg/mL (≈ 69.8 µM) and the MIC [15, 39] was 16 µg/mL (≈ 34.9 µM). It also gave an MIC [15, 40] of 32 µg/mL (≈ 69.8 µM), an MIC [16] of 8 µg/mL (≈ 17.4 µM) and an MIC [17, 41] of 0.13 µg/mL (≈ 0.284 µM). For the same compound, the MIC [17, 42] was 0.13 µg/mL (≈ 0.284 µM), the MIC ([17]; ATCC25922, Table 12, read-out: MIC E. coli ATCC 25922) was 0.13 µg/mL (≈ 0.284 µM) and the MIC Range [18] was 0.063 to 4 µg/mL. The MIC50 [18] was 0.5 µg/mL (≈ 1.09 µM), the MIC90 [18] was 2 µg/mL (≈ 4.36 µM) and the MIC Range ([19]; S. aureus (n = 20)) was “≦0.016-1 μg/ml”. For the same compound, the MIC50 ([19]; Staphylococcus aureus) was ≤ 0.016 µg/mL, the MIC90 ([19]; Staphylococcus aureus) was ≤ 0.016 µg/mL and the MIC Range [20] was “≦0.016-8 μg/ml”. The MIC50 [20] was 2 µg/mL (≈ 4.36 µM), the MIC90 [20] was 4 µg/mL (≈ 8.72 µM) and the MIC [21, 43] was 0.031 µg/mL (≈ 0.0676 µM). It also gave an MIC [21, 44] of 0.03 µg/mL (≈ 0.0654 µM).
With C[C@H]1c2cccc(O)c2C(=O)C2=C(O)[C@]3(O)C(=O)C(C(N)=O)=C(O)[C@@H](N(C)C)[C@@H]3[C@@H](O)[C@@H]21 [Doxycycline, doxycycline, reference compound] the MIC [1, 27] was 2 µg/mL (≈ 4.5 µM), the MIC [1, 28] was 2 µg/mL (≈ 4.5 µM) and the MIC [2] was 2 µg/mL (≈ 4.5 µM). For the same compound, the MIC [3, 29] was 4 µg/mL (≈ 9 µM), the MIC [3, 30] was 8 µg/mL (≈ 18 µM) and the MIC [4, 31] was 32 µg/mL (≈ 72 µM). It also gave an MIC [4, 32] of 32 µg/mL (≈ 72 µM), an MIC [5, 33] of 0.06 µg/mL (≈ 0.135 µM) and an MIC [5, 34] of 0.25 µg/mL (≈ 0.563 µM). For the same compound, the MIC [6] was 4 µg/mL (≈ 9 µM), the “MIC Range” value [22] was “<=0.016-16” and the “MIC Range” value [23] was 0.063-8. The “MIC Range” value [24] was 0.063-16, the MIC [7] was 2 µg/mL (≈ 4.5 µM) and the MIC ([25]; read-out: MIC, TetK Induced) was 8 µg/mL. For the same compound, the MIC ([25]; read-out: MIC, Uninduced) was 2 µg/mL, the “MIC ratio, TetK induced to uninduced” value ([25]; ratio of TetK induced to uninduced MIC) was 4 and the “MIC in the presence of tet(K) expression, fold higher than when tet(K) was not expressed” value ([25]; tet(K) expressed vs not expressed) was 4 fold. For the same compound, the MIC [10] was 32 µg/mL (≈ 72 µM), the MIC [11, 36] was 0.13 µg/mL (≈ 0.293 µM) and the MIC [12] was 4 µg/mL (≈ 9 µM). For the same compound, the “MIC E. faecalis ATCC 29212” value [12] was 4 µg/mL (≈ 9 µM), the MIC [14, 37] was 4 µg/mL (≈ 9 µM) and the MIC [14, 38] was 8 µg/mL (≈ 18 µM). The MIC [15, 39] was 8 µg/mL (≈ 18 µM), the MIC [15, 40] was 8 µg/mL (≈ 18 µM) and the MIC [16] was > 32 µg/mL. It also gave an MIC [17, 41] of 1 µg/mL (≈ 2.25 µM), an MIC [17, 42] of 1 µg/mL (≈ 2.25 µM) and an MIC ([26]; Escherichia coli, read-out: MIC, Uninduced) of 4 µg/mL. The “Ratio (TetM induced / Uninduced)” value ([26]; ratio of MICs) was 8, the MIC Range [18] was 0.5 to 4 µg/mL and the MIC50 [18] was 1 µg/mL (≈ 2.25 µM). The MIC90 [18] was 4 µg/mL (≈ 9 µM), the MIC Range [20] was “≦0.016-16 μg/ml” and the MIC50 [20] was 8 µg/mL (≈ 18 µM). For the same compound, the MIC90 [20] was 8 µg/mL (≈ 18 µM), the MIC [21, 43] was 0.13 µg/mL (≈ 0.293 µM) and the MIC [21, 44] was 0.5 µg/mL (≈ 1.13 µM).
